In patent US20090264481A1, “Compounds, Compositions and Methods Comprising Oxadiazole Derivatives” (Institute for OneWorld Health, priority 2008, published 2009):

Target: T1, CFTR channel (Homo sapiens, UniProt P13569)
T1 construct: results in the phosphorylation and opening of CFTR anion channels; host or cells: human colonic T84 cells
Experiment: T84 assay (FLIPR membrane potential, forskolin/IBMX-stimulated CFTR channel activity)
Type: cell-based
Conditions: Human colonic T84 cells; 10 μM forskolin + 100 μM IBMX; average of at least 2 runs unless marked n = 1
Method: (§1) For example, Human colonic T84 cells can be acquired from the European Collection of Cell Cultures (ECACC) and grown in standard culture conditions as described by the supplier. On the day before assay 25,000 T84 cells per well are plated into standard black walled, clear bottom 384-well assay plates in standard growth medium consisting of DMEM:F12 with 10% FBS and incubated overnight. On the day of the assay the plates are washed using a standard assay buffer (HBSS with 10 mM Hepes) and incubated for 15 minutes in serum free cell culture medium before the addition of a commercially available membrane potential sensitive fluorescent dye (FLIPR Red membrane potential dye, Molecular Devices Corporation). T84 cells are incubated with the FLIPR Red membrane potential dye for 45 minutes in the presence and absence of test compound before being transferred to a commercially available fluorescence imaging plate reader (FLIPR384, Molecular Devices Corporation). Fluorescence levels are monitored continuously every second for 150 seconds; after an initial 10 second baseline, CFTR channel activity is stimulated through the addition of 10 μM forskolin in the presence of 100 μM of the phosphodiesterase inhibitor iso-butyl-methylxanthine (IBMX). Addition of the forskolin leads to the activation of intracellular adenylyl cylase 1, elevating cAMP levels and results in the phosphorylation and opening of CFTR anion channels. CFTR channel opening causes chloride ion efflux and subsequent depolarization of the cells, which is measured by an increase in fluorescence. CFTR inhibitor compounds prevent cell depolarization and the associated increase in fluorescence.
as §1, with “Human colonic” for “For example, Human colonic”, “T84 cells are acquired from” for “T84 cells can be acquired from”, “(ECACC) and are grown in” for “(ECACC) and grown in”

T1 sequence (P13569 whole entry): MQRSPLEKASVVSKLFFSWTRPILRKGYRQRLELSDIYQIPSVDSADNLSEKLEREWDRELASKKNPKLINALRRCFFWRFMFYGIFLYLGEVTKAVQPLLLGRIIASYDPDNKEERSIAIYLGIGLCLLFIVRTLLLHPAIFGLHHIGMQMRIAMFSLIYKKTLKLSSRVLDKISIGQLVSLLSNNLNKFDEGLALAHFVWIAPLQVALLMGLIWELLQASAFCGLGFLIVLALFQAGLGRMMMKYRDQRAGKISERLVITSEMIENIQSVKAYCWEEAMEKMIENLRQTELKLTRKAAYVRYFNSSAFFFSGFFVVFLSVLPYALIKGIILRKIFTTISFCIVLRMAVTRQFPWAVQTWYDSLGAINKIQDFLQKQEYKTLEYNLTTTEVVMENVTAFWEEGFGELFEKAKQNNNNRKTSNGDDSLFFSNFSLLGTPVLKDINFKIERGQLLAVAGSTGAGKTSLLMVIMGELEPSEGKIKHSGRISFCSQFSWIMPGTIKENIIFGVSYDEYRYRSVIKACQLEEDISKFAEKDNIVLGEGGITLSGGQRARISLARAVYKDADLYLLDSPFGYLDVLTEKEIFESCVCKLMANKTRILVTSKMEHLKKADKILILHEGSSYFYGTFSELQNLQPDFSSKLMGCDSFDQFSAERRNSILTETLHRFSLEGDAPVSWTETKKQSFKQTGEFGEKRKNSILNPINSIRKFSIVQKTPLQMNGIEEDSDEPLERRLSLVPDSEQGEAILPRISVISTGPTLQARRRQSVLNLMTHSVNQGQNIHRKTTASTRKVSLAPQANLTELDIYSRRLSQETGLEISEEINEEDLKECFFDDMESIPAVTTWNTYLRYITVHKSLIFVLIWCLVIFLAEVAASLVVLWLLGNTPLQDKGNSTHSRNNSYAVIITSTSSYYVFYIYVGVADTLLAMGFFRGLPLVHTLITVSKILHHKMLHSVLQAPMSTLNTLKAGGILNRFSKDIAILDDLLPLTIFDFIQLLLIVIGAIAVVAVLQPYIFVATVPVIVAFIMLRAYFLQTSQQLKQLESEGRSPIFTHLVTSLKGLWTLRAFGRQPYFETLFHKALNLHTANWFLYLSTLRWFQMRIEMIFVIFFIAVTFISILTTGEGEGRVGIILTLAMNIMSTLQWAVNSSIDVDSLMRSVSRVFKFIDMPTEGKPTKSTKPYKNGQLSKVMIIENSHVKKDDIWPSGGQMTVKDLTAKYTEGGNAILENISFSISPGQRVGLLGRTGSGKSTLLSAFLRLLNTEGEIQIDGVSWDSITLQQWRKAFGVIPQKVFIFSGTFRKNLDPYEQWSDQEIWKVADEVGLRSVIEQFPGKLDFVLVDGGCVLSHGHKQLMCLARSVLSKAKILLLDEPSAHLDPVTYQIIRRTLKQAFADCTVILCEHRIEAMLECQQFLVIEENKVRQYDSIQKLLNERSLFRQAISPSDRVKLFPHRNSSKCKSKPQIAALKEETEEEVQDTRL

SMILES | IC50 [µM]
Oc1c(Br)cc(-c2noc(C(O)(Cc3ccccc3)Cc3ccccc3)n2)cc1Br [Compound 1, 2,6-dibromo-4-(5-(2-hydroxy-1,3-diphenylpropan-2-yl)-1,2,4-oxadiazol-3-yl)phenol] | 3.89
Oc1c(Br)cc(-c2noc(C(O)(c3cccc(F)c3)c3cccc(F)c3)n2)cc1Br [Compound 2, 4-(5-(bis(3-fluorophenyl)(hydroxy)methyl)-1,2,4-oxadiazol-3-yl)-2,6-dibromophenol] | 5.04
COc1cccc(C(O)(c2cccc(OC)c2)c2nc(-c3cc(Br)c(O)c(Br)c3)no2)c1 [Compound 3, 2,6-dibromo-4-(5-(hydroxybis(3-methoxyphenyl)methyl)-1,2,4-oxadiazol-3-yl)phenol] | 5.47
Oc1c(Br)cc(-c2noc(C(O)(c3ccc(Cl)cc3)c3ccc(Cl)cc3)n2)cc1Br [Compound 4, 4-(5-(bis(4-chlorophenyl)(hydroxy)methyl)-1,2,4-oxadiazol-3-yl)-2,6-dibromophenol] | 5.63
Oc1c(Br)cc(-c2noc(C(O)(c3ccccc3)c3ccccc3)n2)cc1Br [Compound 5, 2,6-dibromo-4-(5-(hydroxydiphenylmethyl)-1,2,4-oxadiazol-3-yl)phenol] | 5.85
CC(C)(C)c1ccc(C(O)(c2ccc(C(C)(C)C)cc2)c2nc(-c3cc(Br)c(O)c(Br)c3)no2)cc1 [Compound 6, 4-(5-(bis(4-tert-butylphenyl)(hydroxy)methyl)-1,2,4-oxadiazol-3-yl)-2,6-dibromophenol] | 18.8
Oc1c(Br)cc(-c2noc(C(O)(c3ccc4ccccc4c3)c3ccc4ccccc4c3)n2)cc1Br [Compound 7, 2,6-dibromo-4-(5-(hydroxydinaphthalen-2-ylmethyl)-1,2,4-oxadiazol-3-yl)phenol] | 18.7
Oc1c(Br)cc(-c2noc(C(O)(c3cccc(Cl)c3)c3cccc(Cl)c3)n2)cc1Br [Compound 8, 4-(5-(bis(3-chlorophenyl)(hydroxy)methyl)-1,2,4-oxadiazol-3-yl)-2,6-dibromophenol] | 11.4
COc1cccc(C(O)(c2cccc(OC)c2)c2nc(-c3cc(Cl)c(O)c(Cl)c3)no2)c1 [Compound 9, 2,6-dichloro-4-(5-(hydroxybis(3-methoxyphenyl)methyl)-1,2,4-oxadiazol-3-yl)phenol] | 9.65
Oc1c(Cl)cc(-c2noc(C(O)(c3ccccc3)c3ccccc3)n2)cc1Cl [Compound 10, 2,6-dichloro-4-(5-(hydroxydiphenylmethyl)-1,2,4-oxadiazol-3-yl)phenol] | 6.94
Oc1c(Cl)cc(-c2noc(C(O)(c3ccc(Cl)cc3)c3ccc(Cl)cc3)n2)cc1Cl [Compound 11, 4-(5-(bis(4-chlorophenyl)(hydroxy)methyl)-1,2,4-oxadiazol-3-yl)-2,6-dichlorophenol] | 11.1
CC#CC(O)(C#CC)c1nc(-c2cc(Br)c(O)c(Br)c2)no1 [Compound 12, 2,6-dibromo-4-(5-(4-hydroxyhepta-2,5-diyn-4-yl)-1,2,4-oxadiazol-3-yl)phenol] | 16.2
